Measurements published in US20230085307A1, “PYRIDAZINONE COMPOUND AND HERBICIDE” (NISSAN CHEMICAL CORPORATION, priority 2019, published 2023).

Experiments:
[1] = system: green foxtail; assay: Test Example 4: herbicidal effect by soil treatment (Table 19, symbol G); format: in vivo, green foxtail (Setaria viridis); details: amount of applied herbicide 320 g/ha
Method in brief: (§1)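 Scoring uses the grading scale of an earlier test, three weeks post-application. Treatment consists of spraying a diluted emulsion formulation across the surface of sterilized diluvial soil in which seeds are buried near 1.5 cm deep; boxes are kept in a greenhouse between 25° C. and 30° C.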

[2] = system: redroot pigweed; assay: Test Example 4: herbicidal effect by soil treatment (Table 19, symbol N); format: in vivo, redroot pigweed (Amaranthus retroflexus); details: amount of applied herbicide 320 g/ha
Method in brief: as §1

[3] = system: late watergrass; assay: Test Example 2: herbicidal activity, application during weed generation under submerged conditions (Table 17, symbol A); format: in vivo, late watergrass (Echinochloa oryzicola); details: AAH 320 g/ha; application during weed generation, submerged conditions
Procedure: [Test Example 2] Herbicidal Activity Test by Application during Weed Generation under Submerged Conditions After alluvial soil was placed into 1/10000 are of Wagner pot, water was poured and mixed to form a submerged condition having a water depth of 4 cm. Seeds of late watergrass, Japanese bulrush, and oval-leafed pondweed were sowed in a mixed manner in the aforementioned pot, and the pot was placed in a greenhouse at 25° C. to 30° C. for growth of the plants. When late watergrass, Japanese bulrush, and oval-leafed pondweed were grown to one leaf stage to two leaf stage, the emulsion agent of the compound of the present invention prepared according to Formulation Example 2 was diluted with water so as to achieve a predetermined herbicide amount, and the diluted emulsion agent was applied to the surface of the water. Three weeks after the herbicide application, the effect of the herbicide on each plant was evaluated according to the criteria of Test Example 1.

[4] = system: green foxtail; assay: Test Example 5: herbicidal effect by foliage application, plastic box (Table 20, symbol G); format: in vivo, green foxtail (Setaria viridis); details: 320 g/ha, foliage application after 14-day growth, evaluated three weeks after application
Method in brief: (§2)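 Post-emergence foliar test in sterilized diluvial soil. Compound applied as water-diluted emulsion at a predetermined rate to 14-day-old plants; evaluation at three weeks.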

[5] = system: barnyard grass; assay: Test Example 3: herbicidal effect by foliage application, Wagner pot (Table 18, symbol H); format: in vivo, barnyard grass (Echinochloa crus-galli); details: 320 g/ha
Method in brief: (§3)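 Plants were sown in alluvial soil held under 0.1–0.5 cm standing water and grown 14 days in a greenhouse at 25–30 °C. An emulsifiable formulation, water-diluted to the set dose, was then sprayed onto the foliage, and effects were scored three weeks later using previously defined criteria.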

[6] = system: velvetleaf; assay: Test Example 4: herbicidal effect by soil treatment (Table 19, symbol M); format: in vivo, velvetleaf (Abutilon theophrasti); details: amount of applied herbicide 320 g/ha
Method in brief: as §1

[7] = system: southern crabgrass; assay: Test Example 5: herbicidal effect by foliage application, plastic box (Table 20, symbol F); format: in vivo, southern crabgrass (Digitaria ciliaris); details: 320 g/ha, foliage application after 14-day growth, evaluated three weeks after application
Method in brief: as §2

[8] = system: Japanese bulrush; assay: Test Example 2: herbicidal activity, application during weed generation under submerged conditions (Table 17, symbol B); format: in vivo, Japanese bulrush (Schoenoplectus juncoides); details: AAH 320 g/ha; application during weed generation, submerged conditions
Method in brief: (§4)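 Alluvial soil in Wagner pots was flooded to 4 cm depth and sown with the three weeds together; pots were kept in a greenhouse at 25° C. to 30° C. At the one to two leaf stage, an emulsion formulation diluted in water to a set rate went onto the water surface; scored three weeks later.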

[9] = system: velvetleaf; assay: Test Example 5: herbicidal effect by foliage application, plastic box (Table 20, symbol M); format: in vivo, velvetleaf (Abutilon theophrasti); details: 320 g/ha, foliage application after 14-day growth, evaluated three weeks after application
Method in brief: as §2

[10] = system: redroot pigweed; assay: Test Example 5: herbicidal effect by foliage application, plastic box (Table 20, symbol N); format: in vivo, redroot pigweed (Amaranthus retroflexus); details: 320 g/ha, foliage application after 14-day growth, evaluated three weeks after application
Method in brief: as §2

[11] = system: oval-leafed pondweed; assay: Test Example 2: herbicidal activity, application during weed generation under submerged conditions (Table 17, symbol C); format: in vivo, oval-leafed pondweed (Monochoria vaginalis); details: AAH 320 g/ha; application during weed generation, submerged conditions
Method in brief: as §4

[12] = system: lambsquarters; assay: Test Example 5: herbicidal effect by foliage application, plastic box (Table 20, symbol O); format: in vivo, lambsquarters (Chenopodium album); details: 320 g/ha, foliage application after 14-day growth, evaluated three weeks after application
Method in brief: as §2

[13] = system: barnyard grass; assay: Test Example 5: herbicidal effect by foliage application, plastic box (Table 20, symbol H); format: in vivo, barnyard grass (Echinochloa crus-galli); details: 320 g/ha, foliage application after 14-day growth, evaluated three weeks after application
Method in brief: as §2

[14] = system: barnyard grass; assay: Test Example 4: herbicidal effect by soil treatment (Table 19, symbol H); format: in vivo, barnyard grass (Echinochloa crus-galli); details: amount of applied herbicide 320 g/ha
Method in brief: as §1

[15] = system: Chinese sprangletop; assay: Test Example 3: herbicidal effect by foliage application, Wagner pot (Table 18, symbol D); format: in vivo, chinese sprangletop (Leptochloa chinensis); details: 320 g/ha
Method in brief: as §3

[16] = system: lambsquarters; assay: Test Example 4: herbicidal effect by soil treatment (Table 19, symbol O); format: in vivo, lambsquarters (Chenopodium album); details: amount of applied herbicide 320 g/ha
Method in brief: as §1

[17] = system: southern crabgrass; assay: Test Example 4: herbicidal effect by soil treatment (Table 19, symbol F); format: in vivo, southern crabgrass (Digitaria ciliaris); details: amount of applied herbicide 320 g/ha
Method in brief: as §1

[18] = system: rice flat sedge; assay: Test Example 3: herbicidal effect by foliage application, Wagner pot (Table 18, symbol E); format: in vivo, rice flat sedge (Cyperus iria); details: 320 g/ha
Method in brief: as §3

[19] = system: blackgrass; assay: Test Example 5: herbicidal effect by foliage application, plastic box (Table 20, symbol J); format: in vivo, blackgrass (Alopecurus myosuroides); details: 320 g/ha, foliage application after 14-day growth, evaluated three weeks after application
Method in brief: as §2

[20] = system: windgrass; assay: Test Example 5: herbicidal effect by foliage application, plastic box (Table 20, symbol L); format: in vivo, windgrass (Apera spica-venti); details: 320 g/ha, foliage application after 14-day growth, evaluated three weeks after application
Method in brief: as §2

[21] = system: Italian ryegrass; assay: Test Example 5: herbicidal effect by foliage application, plastic box (Table 20, symbol K); format: in vivo, Italian ryegrass (Lolium multiflorum); details: 320 g/ha, foliage application after 14-day growth, evaluated three weeks after application
Method in brief: as §2

[22] = system: wild oat; assay: Test Example 5: herbicidal effect by foliage application, plastic box (Table 20, symbol I); format: in vivo, wild oat (Avena fatua); details: 320 g/ha, foliage application after 14-day growth, evaluated three weeks after application
Method in brief: as §2

[23] = system: persian speedwell; assay: Test Example 5: herbicidal effect by foliage application, plastic box (Table 20, symbol R); format: in vivo, Persian speedwell (Veronica persica); details: 320 g/ha, foliage application after 14-day growth, evaluated three weeks after application
Method in brief: as §2

[24] = system: chickweed; assay: Test Example 5: herbicidal effect by foliage application, plastic box (Table 20, symbol P); format: in vivo, common chickweed (Stellaria media); details: 320 g/ha, foliage application after 14-day growth, evaluated three weeks after application
Method in brief: as §2

SMILES	herbicidal effect rating, A: late watergrass [3]	herbicidal effect on G: green foxtail (evaluation grade 0-5) [4]	herbicidal effect on barnyard grass (H) [5]	herbicidal effect on F: southern crabgrass (evaluation grade 0-5) [7]	herbicidal effect rating, B: Japanese bulrush [8]	herbicidal effect on M: velvetleaf (evaluation grade 0-5) [9]	herbicidal effect on N: redroot pigweed (evaluation grade 0-5) [10]	herbicidal effect rating, C: oval-leafed pondweed [11]	herbicidal effect on O: lambsquarters (evaluation grade 0-5) [12]	herbicidal effect on H: barnyard grass (evaluation grade 0-5) [13]	herbicidal effect on Chinese sprangletop (D) [15]	herbicidal effect on rice flat sedge (E) [18]	further results
COc1ccc2c(-c3c(O)c(C)nn(C)c3=O)c(-c3ccc(OC(F)(F)F)cc3)sc2c1 [3-170]	2 (Herbicidal rate of 20% or more and less than 40%)	0 (Herbicidal rate of 5% or less (almost no effect))	3 (Herbicidal rate of 40% or more and less than 70%)	0 (Herbicidal rate of 5% or less (almost no effect))	0 (Herbicidal rate of 5% or less (almost no effect))	3 (Herbicidal rate of 40% or more and less than 70%)	4 (Herbicidal rate of 70% or more and less than 90%)	0 (Herbicidal rate of 5% or less (almost no effect))	5 (Herbicidal rate of 90% or more (almost completely withered))	0 (Herbicidal rate of 5% or less (almost no effect))	0 (Herbicidal rate of 5% or less (almost no effect))	0 (Herbicidal rate of 5% or less (almost no effect))	Herbicidal effect by soil treatment, G: green foxtail [1]: 0 (Herbicidal rate of 5% or less (almost no effect)); Herbicidal effect by soil treatment, N: redroot pigweed [2]: 4 (Herbicidal rate of 70% or more and less than 90%); Herbicidal effect by soil treatment, M: velvetleaf [6]: 0 (Herbicidal rate of 5% or less (almost no effect)); Herbicidal effect by soil treatment, H: barnyard grass [14]: 0 (Herbicidal rate of 5% or less (almost no effect)); Herbicidal effect by soil treatment, O: lambsquarters [16]: 1 (Herbicidal rate of 5% or more and less than 20%); Herbicidal effect by soil treatment, F: southern crabgrass [17]: 0 (Herbicidal rate of 5% or less (almost no effect))
CCCC(=O)Oc1c(C)nn(C)c(=O)c1-c1c(-c2ccc(Cl)cc2)sc2c(Cl)cccc12 [4-018]	0 (Herbicidal rate of 5% or less (almost no effect))	0 (Herbicidal rate of 5% or less (almost no effect))	4 (Herbicidal rate of 70% or more and less than 90%)	0 (Herbicidal rate of 5% or less (almost no effect))	3 (Herbicidal rate of 40% or more and less than 70%)	4 (Herbicidal rate of 70% or more and less than 90%)	3 (Herbicidal rate of 40% or more and less than 70%)	3 (Herbicidal rate of 40% or more and less than 70%)	0 (Herbicidal rate of 5% or less (almost no effect))	0 (Herbicidal rate of 5% or less (almost no effect))	4 (Herbicidal rate of 70% or more and less than 90%)	3 (Herbicidal rate of 40% or more and less than 70%)	herbicidal effect on J: blackgrass (evaluation grade 0-5) [19]: 4 (Herbicidal rate of 70% or more and less than 90%); herbicidal effect on L: windgrass (evaluation grade 0-5) [20]: 5 (Herbicidal rate of 90% or more (almost completely withered)); herbicidal effect on K: Italian ryegrass (evaluation grade 0-5) [21]: 3 (Herbicidal rate of 40% or more and less than 70%); herbicidal effect on I: wild oat (evaluation grade 0-5) [22]: 3 (Herbicidal rate of 40% or more and less than 70%); herbicidal effect on R: persian speedwell (evaluation grade 0-5) [23]: 4 (Herbicidal rate of 70% or more and less than 90%); herbicidal effect on P: chickweed (evaluation grade 0-5) [24]: 5 (Herbicidal rate of 90% or more (almost completely withered))
